Measured values taken from patent publication US11981643B1, “Oxoimidazolidine derivatives as anti-tubercular agents” (priority 2023, dated 2024).
Values after ≈ are worked out from the molar mass of the structure shown.

Test system: MDR strain of MTB
Assay: microbe, parasite or virus in culture
Assay type: cell-based
Details: Mycobacterium tuberculosis, 192 h, read-out: Anti-tubercular activity against Mycobacterium tuberculosis, MDR (minimum inhibitory concentration, MIC)

CN1C(=Cc2ccc([N+](=O)[O-])cc2)C(=O)N/C1=N\C(=S)Nc1cccc(Cl)c1 (stereo in doubt) [Compound 4q, 1-(3-Chlorophenyl)-3-[(2E,5Z)-1-methyl-5-(4-nitrobenzylidene)-4-oxoimidazolidin-2-ylidene]thiourea]
MIC: 32 µg/mL (≈ 76.9 µM)

CN1C(=Cc2ccc(-c3ccccc3[N+](=O)[O-])o2)C(=O)N/C1=N\C(=S)Nc1ccc(F)cc1 (stereo in doubt) [Compound 4v, 1-(4-Fluorophenyl)-3-[(2E,5Z)-1-methyl-5-{[5-(2-nitrophenyl)furan-2-yl]methylidene}-4-oxoimidazolidin-2-ylidene]thiourea]
MIC: > 32 µg/mL

CN1/C(=C\c2ccc(Br)o2)C(=O)N/C1=N\C(=O)Nc1cccc(F)c1 [Compound 4g, 1-{(2E,5Z)-5-[(5-Bromofuran-2-yl)methylidene]-1-methyl-4-oxoimidazolidin-2-ylidene}-3-(3-fluorophenyl)urea]
MIC: 32 µg/mL (≈ 78.6 µM)
